Results published in patent publication US20130005696A1, “BUFADIENOLIDE DERIVATIVES, PREPARING PROCESS THEREOF, COMPOSITION COMPRISING THE SAME AND THE USE THEREOF” (priority 2011, published 2013).
Read-outs that look alike come from different tables or passages of the source.

Key:
[1] = test system: HeLa human cervical carcinoma cell line; test: In vitro antitumor activity assay (SRB), HeLa; format: cell-based
From the text: HeLa human cervical carcinoma cell line, A-549 human non-small cell lung carcinoma cell line, NCI-H2228 human lung carcinoma cell line, NCI-H460 human lung carcinoma cell line, MDA-MB-231 human breast carcinoma cell line, MCF-7 human breast carcinoma cell line, Bel-7402 human hepatic carcinoma cell line, Hep3B human hepatic carcinoma cell line, QGY-7703 human hepatic carcinoma cell line, MV-4-11 human leukemic cell line, DAUDI human leukemic cell line, Jurkat human leukemic cell line, A498 renal carcinoma cell line, LoVo human colon carcinoma cell line, HCT1116 human colon carcinoma cell line, A431 human skin carcinoma cell line, PANC-1 human pancreatic carcinoma cell line, U87-MG human brain carcinoma cell line, SH-SY5Y human brain carcinoma cell line, RPMI-8226 human bone carcinoma cell line, HT1080 human fibrosarcoma cell line, PC-3 human prostatic carcinoma cell line, AGS human gastric adenocarcinoma cell line, and BGC-823 human gastric adenocarcinoma cell line were purchased from the Cell Bank of the Chinese Academy of Sciences.
The positive control is bufalin (formulated according to the common method), its purity is 98% or more by HPLC-UV and its structure is identified by NMR. The compounds to be tested and the positive control were diluted with normal saline with a concentration gradient of 10^−4 M, 10^−5 M, 10^−6 M, 10^−7 M and 10^−8 M.
According to cell growth rate, tumor cells in the log phase of growth were seeded into 96-well culture plates at 100 μL per well, and allowed to attach for 24 hours, followed by addition of a test compound or positive control at 10 μL per well. For each concentration, the test was carried out in triplicate wells. Solvent control wells with addition of normal saline into cell culture and a blank well containing only cell culture medium but without cells for zeroing were also included. The tumor cells were incubated for 72 hours at 37° C. under 5% CO2, and then the culture medium (RPMI-1640) was removed. The cells were fixed with 10% cool TCA by incubating for 1 h at 4° C., washed with distilled water for 5 times, and dried naturally in the air. A solution of SRB (Sigma) (4 mg/mL) in 1% glacial acetic acid was added at 100 μL per well, and the cells were stained for 15 minutes at room temperature, and the supernatant was discarded. The plates were washed for 5 times with 1% acetic acid, and dried in air. Finally, Tris solution was added at 150 μL per well, and the absorbance (A) was measured at a wavelength of 515 nm using a microplate reader. The growth inhibition on tumor cell proliferation was calculated according to the following equation:
Growth Inhibition (%)=[(Absorbance of negative control−Absorbance of blank)−(Absorbance of sample−Absorbance of blank)]/(Absorbance of negative control−Absorbance of blank)×100%
Drug concentration: 10 μM, 1 μM, 0.1 μM, 10 nM, 1 nM, 0.1 nM.
IC50 was fitted by GraphPad Prism 4.

[2] = test system: human non-small cell lung carcinoma A549 xenograft; test: In vivo therapeutic effect against A549 xenograft in nude mice; conditions: for Inhibition Rate (%) / Tumor Weight(g) Mean ± SE: A549 xenograft, 4 mg/kg ip QOD, after 21 days
Procedure: This experiment is to evaluate the in vivo therapeutic effects of compounds bufalin, II1D-06.HCl, II1E-01.HCl and II1B-02.HCl against human-derived lung carcinoma A549 cell xenograft in nude mice.
Solvent control: 4% DMSO & 2% Tween-80 & 5% PEG-400 solution in normal saline
Compounds to be tested: bufalin, II1B-02.HCl, II1E-01.HCl, II1D-06.HCl
Formulating method: the compound was dissolved with DMSO into a stock solution, which was then diluted into an injection with a final DMSO concentration of 4%.
Positive control: Rapamycin Formulating method: it was formulated into an injection with a final DMSO concentration of 4%.
After the tumor size reaches about 200 mm^3, the mice bearing the tumor were grouped randomly into 8 groups according to the tumor size, including the groups of solvent control, positive control rapamycin 5 mg/kg, II1E-01.HCl 2 mg/kg, II1E-01.HCl 4 mg/kg, II1E-01.HCl 6 mg/kg, II1B-02.HCl 4 mg/kg, II1D-06.HCl 4 mg/kg, bufalin 1.6 mg/kg, wherein the dosage selection is based on that the maximum tolerable dosage is 1.6 mg/kg for bufalin and 6 mg/kg for II1E-01.HCl. Rapamycin was administered intravenously once a week (QW) and the other groups were administered intraperitoneally once every other day (QOD). The tumor was weighted after 21 days to calculate the inhibition rate. The equation for calculating inhibition rate (IR) is IR=(WC−WT)/WC×100%, wherein, WC represents the tumor weight of the control group, and WT represents the tumor weight of the treating group.

[3] = test system: human hepatic carcinoma HepG2 xenograft; test: Therapeutic effect against HepG2 xenograft in nude mice; format: in vivo, Balb/c nude mice; conditions: 8 mg/kg iv, QW × 14 d
Procedure: This experiment is to investigate the in vivo inhibitory effect of II1E-01.HCl on growth of human-derived hepatic carcinoma HepG2 cell, human-derived breast carcinoma MDA-MB-231 cell, human-derived lung carcinoma H460 cell, human-derived colon carcinoma HCT-116 cell, human-derived […] MV-4-11 cell xenografts in nude mice.
Formulation of solvent control (5% anhydrous ethanol & 5% aqueous glucose solution): 2.5 mL anhydrous ethanol was added into a 50 mL tube, followed by addition of 47.5 mL 5% glucose solution for injection followed by shaking, and stored at room temperature before use.
Formulation of the preparations of the compounds to be tested: formulations with concentrations of 0.4 mg/mL and 0.6 mg/mL were prepared respectively. An appropriate amount of II1E-01.HCl was weighted and put into a 50 mL tube, followed by addition of corresponding volume of solvent to get the desired concentration and mixed using a vortex mixer. After the solid was dissolved completely, the solution was subpackaged into 4 mL vials and stored at refrigerated condition (2-8° C.) until use.
Experimental animals: Balb/c nude mice (male, six weeks old).
HepG2 cells were in vitro cultured to be proliferated. The cells in the log phase of growth were collected and resuspended in DMEM serum-free medium, and then implanted subcutaneously into the axilla of the right forelimb of nude mice. After 11 days, the tumor size reached about 250 mm^3. The mice bearing the tumor were grouped according to the tumor size into 6 groups, including the group of solvent control, groups of positive controls (Rapamycin 10 mg/kg and Vinorelbine 8 mg/kg), and groups of low (2 mg/kg), middle (4 mg/kg) and high (6 mg/kg) dosages of the testing compound II1E-01.HCl. Each group was administered intravenously at tail. In the solvent control group, the solvent control solution was administered intravenously once every other day (QOD). In the low, middle and high dosage groups of II1E-01.HCl, II1E-01.HCl was administered intravenously once every other day (QOD). In the positive control groups, Rapamycin 10 mg/kg and Vinorelbine 8 mg/kg were administered once a week (QW). The animals were given the drugs for two weeks. In the two week time period, the growth of tumor and the body weight of the mice were observed.
Two weeks after administering (the 25th day after the implantation), the tumor weight and inhibition rate were calculated, and results are listed in Table 5.

[4] = read-out: IC50, inhibitory activity on cell proliferation of HeLa cell line

Row | SMILES | IC50 [1, 4] [nM] | other results
1 | CN(C)CCNC(=O)O[C@H]1CC[C@@]2(C)[C@H](CC[C@@H]3[C@@H]2CC[C@]2(C)[C@@H](c4ccc(=O)oc4)CC[C@]32O)C1 [II1B-01] | 1.79 | –
2 | CCN(CC)CCNC(=O)O[C@H]1CC[C@@]2(C)[C@H](CC[C@@H]3[C@@H]2CC[C@]2(C)[C@@H](c4ccc(=O)oc4)CC[C@]32O)C1.Cl [II1B-02•HCl] | – | inhibition of growth of human lung carcinoma A549 xenograft, in words ([2]; A549 xenograft in nude mice, bufalin at 1.6 mg/kg): significantly inhibit the growth; Inhibition Rate (%) [2]: 58.34%; Tumor Weight(g) Mean ± SE [2]: 0.7013 ± 0.0707 g
3 | CCN(CCN(C)C)C(=O)O[C@H]1CC[C@@]2(C)[C@H](CC[C@@H]3[C@@H]2CC[C@]2(C)[C@@H](c4ccc(=O)oc4)CC[C@]32O)C1 [II1B-04] | 2.17 | –
4 | CCNCCN(CC)C(=O)O[C@H]1CC[C@@]2(C)[C@H](CC[C@@H]3[C@@H]2CC[C@]2(C)[C@@H](c4ccc(=O)oc4)CC[C@]32O)C1 [II1B-06] | 1.11 | –
5 | CNCCCN(C)C(=O)O[C@H]1CC[C@@]2(C)[C@H](CC[C@@H]3[C@@H]2CC[C@]2(C)[C@@H](c4ccc(=O)oc4)CC[C@]32O)C1 [II1B-07] | 1.15 | –
6 | C[C@]12CC[C@H](OC(=O)NCCN)C[C@H]1CC[C@@H]1[C@@H]2CC[C@]2(C)[C@@H](c3ccc(=O)oc3)CC[C@]12O [II1B-09] | 5.72 | –
7 | C[C@]12CC[C@H](OC(=O)NCCCN)C[C@H]1CC[C@@H]1[C@@H]2CC[C@]2(C)[C@@H](c3ccc(=O)oc3)CC[C@]12O [II1B-10] | 1.82 | –
8 | CN1CCN(C(=O)O[C@H]2CC[C@@]3(C)[C@H](CC[C@@H]4[C@@H]3CC[C@]3(C)[C@@H](c5ccc(=O)oc5)CC[C@]43O)C2)CC1 [II1D-03] | 3.49 | –
9 | C[C@]12CC[C@H](OC(=O)N3CCC(O)CC3)C[C@H]1CC[C@@H]1[C@@H]2CC[C@]2(C)[C@@H](c3ccc(=O)oc3)CC[C@]12O [II1D-04] | 38 | –
10 | C[C@]12CC[C@H](OC(=O)N3CCCNCC3)C[C@H]1CC[C@@H]1[C@@H]2CC[C@]2(C)[C@@H](c3ccc(=O)oc3)CC[C@]12O.Cl [II1D-06•HCl] | – | Inhibition Rate (%) [2]: 37.15%; Tumor Weight(g) Mean ± SE [2]: 1.0580 ± 0.0866 g
11 | CCOC(=O)CCNC(=O)N1CCN(C(=O)O[C@H]2CC[C@@]3(C)[C@H](CC[C@@H]4[C@@H]3CC[C@]3(C)[C@@H](c5ccc(=O)oc5)CC[C@]43O)C2)CC1 [II1D-07] | 2.6 | –
12 | C[C@]12CC[C@H](OC(=O)N3CCN(S(C)(=O)=O)CC3)C[C@H]1CC[C@@H]1[C@@H]2CC[C@]2(C)[C@@H](c3ccc(=O)oc3)CC[C@]12O [II1D-10] | 16.3 | –
13 | COC(=O)c1ccccc1S(=O)(=O)N1CCN(C(=O)O[C@H]2CC[C@@]3(C)[C@H](CC[C@@H]4[C@@H]3CC[C@]3(C)[C@@H](c5ccc(=O)oc5)CC[C@]43O)C2)CC1 [II1D-12] | 41.8 | –
14 | CC(=O)N1CCN(C(=O)O[C@H]2CC[C@@]3(C)[C@H](CC[C@@H]4[C@@H]3CC[C@]3(C)[C@@H](c5ccc(=O)oc5)CC[C@]43O)C2)CC1 [II1D-14] | 23.1 | –
15 | C[C@]12CC[C@H](OC(=O)N3CCN(C(=O)c4ccccc4)CC3)C[C@H]1CC[C@@H]1[C@@H]2CC[C@]2(C)[C@@H](c3ccc(=O)oc3)CC[C@]12O [II1D-16] | 44.6 | –
16 | C[C@]12CC[C@H](OC(=O)N3CCNC3)C[C@H]1CC[C@@H]1[C@@H]2CC[C@]2(C)[C@@H](c3ccc(=O)oc3)CC[C@]12O [II1D-19] | 5.8 | –
17 | CNC1CCN(C(=O)O[C@H]2CC[C@@]3(C)[C@H](CC[C@@H]4[C@@H]3CC[C@]3(C)[C@@H](c5ccc(=O)oc5)CC[C@]43O)C2)CC1 [II1D-22] | 7.34 | –
18 | CCNC1CCN(C(=O)O[C@H]2CC[C@@]3(C)[C@H](CC[C@@H]4[C@@H]3CC[C@]3(C)[C@@H](c5ccc(=O)oc5)CC[C@]43O)C2)CC1 [II1D-23] | 1.12 | –
19 | C[C@]12CC[C@H](OC(=O)N3CCC(NCCO)CC3)C[C@H]1CC[C@@H]1[C@@H]2CC[C@]2(C)[C@@H](c3ccc(=O)oc3)CC[C@]12O [II1D-24] | 7.3 | –
20 | CN(C)C1CCN(C(=O)O[C@H]2CC[C@@]3(C)[C@H](CC[C@@H]4[C@@H]3CC[C@]3(C)[C@@H](c5ccc(=O)oc5)CC[C@]43O)C2)CC1 [II1D-25] | 5.44 | –
21 | C[C@]12CC[C@H](OC(=O)NCC3CCNCC3)C[C@H]1CC[C@@H]1[C@@H]2CC[C@]2(C)[C@@H](c3ccc(=O)oc3)CC[C@]12O [II1E-02] | 4.31 | –
22 | C[C@]12CC[C@H](NC(=O)N3CCNCC3)C[C@H]1CC[C@@H]1[C@@H]2CC[C@]2(C)[C@@H](c3ccc(=O)oc3)CC[C@]12O [III1D-02] | – | IC50 ([1]; Table 1, read-out: IC50, inhibitory activity on cell proliferation of HeLa cell line): 5.68 nM
23 | CN1CCN(C(=O)N[C@H]2CC[C@@]3(C)[C@H](CC[C@@H]4[C@@H]3CC[C@]3(C)[C@@H](c5ccc(=O)oc5)CC[C@]43O)C2)CC1 [III1D-03] | 41.6 | –
24 | C[C@]12CC[C@H](NC(=O)N3CCCNCC3)C[C@H]1CC[C@@H]1[C@@H]2CC[C@]2(C)[C@@H](c3ccc(=O)oc3)CC[C@]12O [III1D-04] | 3.98 | –
25 | C[C@]12CC[C@H](NC(=O)NC3CCNCC3)C[C@H]1CC[C@@H]1[C@@H]2CC[C@]2(C)[C@@H](c3ccc(=O)oc3)CC[C@]12O [III1E-01] | 7.2 | –
26 | C[C@]12CC[C@H](NC(=O)NCC3CCCCN3)C[C@H]1CC[C@@H]1[C@@H]2CC[C@]2(C)[C@@H](c3ccc(=O)oc3)CC[C@]12O (stereo partly shown) [III1E-02] | 8.68 | –
27 | CCC1=C[C@@H]2CN(C1)Cc1c([nH]c3ccccc13)[C@@](C(=O)OC)(c1cc3c(cc1OC)N(C)[C@H]1[C@@](O)(C(=O)OC)[C@H](OC(C)=O)[C@]4(CC)C=CCN5CC[C@]31[C@@H]54)C2 [Vinorelbine, reference compound] | – | Tumor Weight(g) Mean ± SE [3]: 0.4719 ± 0.0660 g; Inhibition Rate (%) ([3]; 8 mg/kg): 38.36%
